The text below walks through data of ChEMBL document CHEMBL5046295 (J Med Chem, 2022).

The term EC50 denotes the concentration needed to bring the measured effect to its halfway point. High values mean lower potency in that assay, low ones higher potency in that assay. Usually Ki stands for a dissociation constant, usually derived from enzyme kinetics or from competition with a known ligand. Higher therefore signals weaker binding.

For data set [1], the system named is Mus musculus. Description: Antinociceptive activity against Swiss Webster mouse model assessed as increase in tail withdrawal latency from warm water by measuring maximum possible effect at 10 mg/kg, sc measured after 20 min by warm water tail immersion assay. It is filed as functional, organism-based.
Data set [2] relates to Mus musculus. Description: Antinociceptive activity against Swiss Webster mouse model assessed as increase in tail withdrawal latency from warm water at 10 mg/kg, sc incubated for 5 mins followed by morphine addition and measured after 20 mins by warm water tail immersion assay. It counts as functional, organism-based.
Data set [3] concerns Mus musculus. Description: Anti-addiction activity in morphine pelleted Swiss Webster mouse assessed as wet dog shakes at 5 mg/kg, sc measured after 72 hrs. It is filed as functional, organism-based.
Data set [4] relates to Mus musculus. Nature of the data set: Anti-addiction activity in morphine pelleted Swiss Webster mouse assessed as escape jumps at 5 mg/kg, sc measured after 72 hrs. It is filed as functional, organism-based.
In data set [5] the test system is Mus musculus. Description: Anti-addiction activity in morphine pelleted Swiss Webster mouse assessed as paw tremors at 5 mg/kg, sc measured after 72 hrs. It is filed as functional, organism-based.
The target of data set [6] is T1, Mu-type opioid receptor (Mus musculus, UniProt P42866). Description: Partial agonist activity at mouse mu opioid receptor expressed in CHO cell membranes incubated for 1.5 hrs by [35S]GTPgammaS binding based liquid scintillation counting method. On the technique in general: GTPγS is a poorly hydrolysed GTP analogue; its binding reports G protein activation.
T1 sequence (P42866 whole entry): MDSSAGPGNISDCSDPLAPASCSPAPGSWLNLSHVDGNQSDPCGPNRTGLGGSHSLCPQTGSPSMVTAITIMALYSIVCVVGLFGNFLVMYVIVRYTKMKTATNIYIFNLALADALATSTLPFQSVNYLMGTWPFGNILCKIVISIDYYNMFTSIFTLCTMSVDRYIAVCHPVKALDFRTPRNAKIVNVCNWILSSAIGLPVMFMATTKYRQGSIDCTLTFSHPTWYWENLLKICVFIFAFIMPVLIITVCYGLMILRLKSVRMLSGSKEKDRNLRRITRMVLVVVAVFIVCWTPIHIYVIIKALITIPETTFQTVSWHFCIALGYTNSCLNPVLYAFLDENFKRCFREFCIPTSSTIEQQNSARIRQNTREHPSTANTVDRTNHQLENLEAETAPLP
The target of data set [7] is T1, Mu-type opioid receptor.
Data set [8] deals with T2, Kappa-type opioid receptor (Mus musculus, UniProt P33534).
T2 sequence (P33534 whole entry): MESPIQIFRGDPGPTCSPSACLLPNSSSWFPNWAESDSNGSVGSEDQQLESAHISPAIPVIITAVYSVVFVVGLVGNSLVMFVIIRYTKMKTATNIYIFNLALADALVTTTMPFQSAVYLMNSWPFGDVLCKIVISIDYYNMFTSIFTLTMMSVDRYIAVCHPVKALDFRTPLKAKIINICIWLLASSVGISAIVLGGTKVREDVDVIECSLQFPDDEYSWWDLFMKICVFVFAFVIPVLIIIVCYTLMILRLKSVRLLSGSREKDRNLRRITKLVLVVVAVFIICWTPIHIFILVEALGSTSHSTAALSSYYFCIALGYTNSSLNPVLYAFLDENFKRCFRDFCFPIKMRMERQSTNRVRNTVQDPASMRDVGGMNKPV
Description: Displacement of [3H]-diprenorphine from mouse kappa opioid receptor expressed in CHO cell membranes assessed as inhibition constant incubated for 1.5 hrs by competitive binding assay
Data set [9] addresses T3, Delta-type opioid receptor (Homo sapiens, UniProt P41143).
Description: Displacement of [3H]-diprenorphine from human delta opioid receptor expressed in CHO cell membranes assessed as inhibition constant incubated for 1.5 hrs by competitive binding assay
The target in data set [10] is T2, Kappa-type opioid receptor. Nature of the data set: biochemical.
Description: Antagonist activity at mouse kappa opioid receptor expressed in CHO cell membranes assessed as reduction in U50,488H induced [35S]GTPgammaS binding incubated for 1.5 hrs by liquid scintillation counting method
Data set [11] concerns the target T3, Delta-type opioid receptor. Nature of the data set: biochemical.
Description: Antagonist activity against human delta opioid receptor expressed in CHO cell membrane assessed as reduction in SNC80 induced [35S]GTPgammaS binding incubated for 1.5 hrs by liquid scintillation counting method
Data set [12] in a line: Solubility of the compound in DMSO. It is filed as physicochemical.

Structures are written as SMILES. Calls of active or inactive are those of the source. The rule behind the calls is not given here.

T3 sequence (P41143 whole entry): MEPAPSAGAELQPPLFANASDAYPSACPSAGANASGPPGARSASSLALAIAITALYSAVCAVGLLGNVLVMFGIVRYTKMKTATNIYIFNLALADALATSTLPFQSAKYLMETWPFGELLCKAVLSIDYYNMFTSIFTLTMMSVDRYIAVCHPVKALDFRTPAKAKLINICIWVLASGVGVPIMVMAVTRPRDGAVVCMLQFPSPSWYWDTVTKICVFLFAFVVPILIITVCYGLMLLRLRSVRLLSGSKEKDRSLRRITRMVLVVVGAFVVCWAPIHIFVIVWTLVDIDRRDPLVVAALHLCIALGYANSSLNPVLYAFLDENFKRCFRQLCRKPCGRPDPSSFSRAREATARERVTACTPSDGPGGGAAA

Regarding `O=C(N[C@H]1CC[C@@]2(O)[C@H]3Cc4ccc(O)c5c4[C@@]2(CCN3CC2CC2)[C@H]1O5)c1cccs1`, the outcome in [1] was inactive. For the same compound, the result in [2], in data set [3], in data set [4] and in data set [5] was Active.

`O=C(Cc1ccsc1)N[C@H]1CC[C@@]2(O)[C@H]3Cc4ccc(O)c5c4[C@@]2(CCN3CC2CC2)[C@H]1O5`: in data set [6], the EC50 was found to be 1.21 nM. The result in data set [1] and in [2] was inactive. Moreover, the Ki was 0.23 nM in data set [7], 0.65 nM in [8] and 39.4 nM in data set [9].

Turning to `O=C(Cc1ccco1)N[C@@H]1CC[C@@]2(O)[C@H]3Cc4ccc(O)c5c4[C@@]2(CCN3CC2CC2)[C@H]1O5`, the EC50 in data set [6] was determined as 0.97 nM; in data set [10], 13.3 nM; in [11] it was 42.3 nM. For the same compound, in [1], the result was inactive. Further, the outcome in data set [2] was Active. For the same compound, the Ki in data set [7] came out at 0.23 nM; in data set [8], 3.38 nM; in data set [9], 45.6 nM.

With `O=C(Cc1ccco1)N[C@H]1CC[C@@]2(O)[C@H]3Cc4ccc(O)c5c4[C@@]2(CCN3CC2CC2)[C@H]1O5`, the values for the concentration giving a half-maximal response (EC50) in data set [6], in data set [10] and in data set [11] were 2.74 nM, 85.4 nM and 6.2 nM, respectively. In [1], the outcome was inactive. The result in [2] was Active. Besides, the Ki in data set [7] stood at 0.59 nM; in data set [8] it was 6.67 nM; in [9], 4.61 nM.

On to `O=C(Cc1ccoc1)N[C@@H]1CC[C@@]2(O)[C@H]3Cc4ccc(O)c5c4[C@@]2(CCN3CC2CC2)[C@H]1O5`, for which the EC50 in data set [6] came out at 0.91 nM. Further, the result in [1] and in data set [2] was inactive. Further, the values for the Ki in data set [7], in [8] and in data set [9] were 0.22 nM, 3.68 nM and 73 nM, respectively.

For `O=C(CCc1cccs1)N[C@H]1CC[C@@]2(O)[C@H]3Cc4ccc(O)c5c4[C@@]2(CCN3CC2CC2)[C@H]1O5`, the EC50 in [6] worked out at 3.06 nM. The result in [1] and in data set [2] was inactive. In addition, the inhibition constant (Ki) worked out at 0.48 nM in [7], 1.76 nM in data set [8] and 2.25 nM in [9].

In the case of `O=C(CCc1cc[nH]c1)N[C@H]1CC[C@@]2(O)[C@H]3Cc4ccc(O)c5c4[C@@]2(CCN3CC2CC2)[C@H]1O5`, the solubility result in [12] is listed as “Insoluble”. In data set [6], this compound registered an EC50 of 3.86 nM. Moreover, the result in [1] was inactive. Moreover, the result in [2] was Active. Besides, the Ki in [7] was 0.7 nM; in data set [8], 0.59 nM; in data set [9], 8.62 nM.

Regarding `O=C(N[C@@H]1CC[C@@]2(O)[C@H]3Cc4ccc(O)c5c4[C@@]2(CCN3CC2CC2)[C@H]1O5)c1ccco1`, the results for the concentration for a half-maximal effect (EC50) in [6], in [10] and in [11] were 0.98 nM, 6.3 nM and 35.5 nM, respectively. For the same compound, in [1], the outcome was inactive. Also, the result in data set [2] was Active. Moreover, the Ki in [7] was 0.3 nM; in data set [8], 1.29 nM; in [9], 84.7 nM.

For `O=C(Cc1cc[nH]c1)N[C@@H]1CC[C@@]2(O)[C@H]3Cc4ccc(O)c5c4[C@@]2(CCN3CC2CC2)[C@H]1O5`, the EC50 in [6] came out at 1.18 nM. Moreover, the outcome in data set [1] and in [2] was inactive. Besides, the figures for the Ki in data set [7], in data set [8] and in data set [9] were 0.28 nM, 4.19 nM and 37.8 nM, respectively.

`O=C(N[C@H]1CC[C@@]2(O)[C@H]3Cc4ccc(O)c5c4[C@@]2(CCN3CC2CC2)[C@H]1O5)c1ccsc1`: the result in [1] was inactive. Moreover, the outcome in data set [2], in [3] and in data set [4] was Active.
